According to US9963467B2, “Boronic acid derivatives and therapeutic uses thereof” (Rempex Pharmaceuticals, Inc., priority 2014, dated 2018):

What was measured:
[1] = biological target: KPC-2 (Klebsiella pneumoniae, UniProt Q9F663); test: Ki, nitrocefin cleavage by purified enzyme, KPC-2; assay type: biochemical; settings: nitrocefin reporter substrate; read-out: Ki (KPC-2, NCF)
Summary of the method: (§1)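 10 min RT preincubation, enzyme with inhibitor series in reaction buffer. Substrate nitrocefin; kinetic read 490 nm, 10 sec intervals, 10 min total.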

[2] = test system: ec308 (SHV-5); test: Tigemonam potentiation (MPC@4), ec308; assay type: cell-based
[3] = test system: KP1010 (SHV-12); test: Tigemonam potentiation (MPC@4), KP1010; assay type: cell-based
[4] = test system: ec302 (TEM-10); test: Tigemonam potentiation (MPC@4), ec302; assay type: cell-based
[5] = test system: ECL1002; test: Aztreonam potentiation (MPC@4), ECL1002; assay type: cell-based; settings: BLI with aztreonam at 4 μg/mL
[6] = test system: KP1009 (CTX-M-15); test: organism not typed; assay type: cell-based
[7] = biological target: P99 (Enterobacter cloacae, UniProt P05364); test: Ki, nitrocefin cleavage by purified enzyme, P99; assay type: biochemical; settings: nitrocefin reporter substrate; read-out: Ki (P99, NCF)
Sequence of P99 (P05364 21-381): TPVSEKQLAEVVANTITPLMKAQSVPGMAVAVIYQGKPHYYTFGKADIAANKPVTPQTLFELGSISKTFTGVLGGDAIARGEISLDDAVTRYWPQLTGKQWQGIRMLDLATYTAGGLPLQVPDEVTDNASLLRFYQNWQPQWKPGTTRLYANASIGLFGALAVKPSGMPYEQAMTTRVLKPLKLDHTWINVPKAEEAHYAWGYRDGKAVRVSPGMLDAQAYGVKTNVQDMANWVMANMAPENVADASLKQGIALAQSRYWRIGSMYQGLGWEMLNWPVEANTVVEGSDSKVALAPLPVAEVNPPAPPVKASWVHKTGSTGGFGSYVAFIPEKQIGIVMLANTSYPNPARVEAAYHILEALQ
Summary of the method: as §1

[8] = test system: KP1005 (CTX-M-14); test: Tigemonam potentiation (MPC@4), KP1005; assay type: cell-based; settings: BLI with tigemonam at 4 μg/mL
[9] = biological target: SHV-12 (Klebsiella pneumoniae, UniProt P0AD64, E235K/G234S/L31Q); test: Ki, nitrocefin cleavage by purified enzyme, SHV-12; assay type: biochemical; settings: nitrocefin reporter substrate; read-out: Ki (SHV-12, NCF)
Sequence of SHV-12 (P0AD64 22-286 L31Q/G234S/E235K): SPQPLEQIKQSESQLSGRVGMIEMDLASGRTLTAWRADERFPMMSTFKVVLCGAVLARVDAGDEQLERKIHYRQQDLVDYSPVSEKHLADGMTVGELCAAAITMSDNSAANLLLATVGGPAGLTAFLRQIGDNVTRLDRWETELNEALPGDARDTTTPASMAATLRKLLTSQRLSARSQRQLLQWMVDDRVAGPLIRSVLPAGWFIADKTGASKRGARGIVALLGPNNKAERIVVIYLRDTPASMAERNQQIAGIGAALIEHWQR
Summary of the method: as §1

[10] = test system: ECL1002; test: Tigemonam potentiation (MPC@4), ECL1002; assay type: cell-based; settings: BLI with tigemonam at 4 μg/mL
[11] = test system: KP1009 (CTX-M-15); test: Tigemonam potentiation (MPC@4), KP1009; assay type: cell-based; settings: BLI with tigemonam at 4 μg/mL
[12] = test system: EC1010 (CMY-6); test: Tigemonam potentiation (MPC@4), EC1010; assay type: cell-based; settings: BLI with tigemonam at 4 μg/mL
[13] = biological target: OXA-48 (Klebsiella pneumoniae, UniProt Q6XEC0); test: Ki, nitrocefin cleavage by purified enzyme, OXA-48; assay type: biochemical; settings: nitrocefin reporter substrate; read-out: Ki (OXA-48, NCF)
Sequence of OXA-48 (Q6XEC0 23-265, looked up, species assumed): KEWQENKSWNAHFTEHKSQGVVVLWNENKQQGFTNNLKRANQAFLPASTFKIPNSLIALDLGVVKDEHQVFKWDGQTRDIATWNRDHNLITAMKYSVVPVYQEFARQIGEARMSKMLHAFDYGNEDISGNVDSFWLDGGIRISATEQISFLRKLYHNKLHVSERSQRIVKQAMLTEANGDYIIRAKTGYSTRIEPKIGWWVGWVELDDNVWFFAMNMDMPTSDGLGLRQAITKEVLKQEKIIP
Summary of the method: as §1

[14] = biological target: CTX-M-14 (Escherichia coli, UniProt Q9L5C7); test: Ki, nitrocefin cleavage by purified enzyme, CTX-M-14; assay type: biochemical; settings: nitrocefin reporter substrate; read-out: Ki (CTX-M-14, NCF)
Sequence of CTX-M-14 (Q9L5C7 29-291): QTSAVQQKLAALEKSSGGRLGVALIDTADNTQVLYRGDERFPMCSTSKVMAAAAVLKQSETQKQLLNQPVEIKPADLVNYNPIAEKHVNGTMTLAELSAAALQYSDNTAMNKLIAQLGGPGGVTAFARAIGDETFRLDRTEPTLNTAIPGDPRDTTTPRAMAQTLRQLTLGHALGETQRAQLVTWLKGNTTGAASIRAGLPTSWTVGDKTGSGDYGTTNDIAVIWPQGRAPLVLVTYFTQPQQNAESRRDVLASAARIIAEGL
Summary of the method: as §1

[15] = test system: ec302 (TEM-10); test: Aztreonam potentiation (MPC@4), ec302; assay type: cell-based; settings: BLI with aztreonam at 4 μg/mL
[16] = test system: KP1005 (CTX-M-14); test: Aztreonam potentiation (MPC@4), KP1005; assay type: cell-based; settings: BLI with aztreonam at 4 μg/mL
[17] = test system: EC1010 (CMY-6); test: organism not typed; assay type: cell-based
[18] = test system: KP1086 (OXA-48); test: Biapenem potentiation (MPC@1), KP1086; settings: BLI with biapenem at 1 μg/mL
[19] = test system: KP1004 (KPC-2); test: Biapenem potentiation (MPC@1), KP1004; settings: BLI with biapenem at 1 μg/mL
[20] = biological target: Pa AmpC (Pseudomonas aeruginosa, UniProt P24735); test: Ki, nitrocefin cleavage by purified enzyme, Pa AmpC; assay type: biochemical; settings: nitrocefin reporter substrate; read-out: Ki (Pa AmpC, NCF)
Sequence of Pa AmpC (P24735 27-397): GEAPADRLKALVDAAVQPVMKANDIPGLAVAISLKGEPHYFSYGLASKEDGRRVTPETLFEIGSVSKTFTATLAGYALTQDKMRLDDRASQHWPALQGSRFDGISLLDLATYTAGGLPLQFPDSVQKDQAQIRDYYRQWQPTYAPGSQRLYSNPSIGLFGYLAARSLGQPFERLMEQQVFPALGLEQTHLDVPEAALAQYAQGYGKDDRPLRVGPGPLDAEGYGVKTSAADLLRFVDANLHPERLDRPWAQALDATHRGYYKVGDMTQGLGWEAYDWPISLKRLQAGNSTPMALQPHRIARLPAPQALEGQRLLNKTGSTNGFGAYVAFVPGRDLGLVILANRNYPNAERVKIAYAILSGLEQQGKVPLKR
Summary of the method: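 Spectrophotometric Ki: enzyme + inhibitor (varied conc.), 10 min RT preincubation; nitrocefin added; A490 read every 10 sec for 10 min.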

[21] = test system: KP1004 (KPC-2); test: Aztreonam potentiation (MPC@4), KP1004; assay type: cell-based; settings: BLI with aztreonam at 4 μg/mL

Sequence of KPC-2 (Q9F663 25-293, looked up, species assumed): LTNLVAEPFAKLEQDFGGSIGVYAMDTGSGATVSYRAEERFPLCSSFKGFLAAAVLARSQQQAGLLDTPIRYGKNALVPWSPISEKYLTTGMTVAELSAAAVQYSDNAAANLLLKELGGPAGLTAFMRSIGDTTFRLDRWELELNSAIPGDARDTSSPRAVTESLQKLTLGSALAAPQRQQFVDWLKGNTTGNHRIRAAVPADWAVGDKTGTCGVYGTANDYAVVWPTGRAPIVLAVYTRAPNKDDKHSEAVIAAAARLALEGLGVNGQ

Row | SMILES | Ki [1] | TIG MPC4 SHV-5 ec308 [2] | TIG MPC4 SHV-12 KP1010 [3] | TIG MPC4 TEM-10 ec302 [4] | AZT MPC4 ECL1002 [5] | AZT MPC4 CTX-M-15 KP1009 [6] | Ki [7] | TIG MPC4 CTX-M-14 KP1005 [8] | Ki [9] | TIG MPC4 ECL1002 [10] | TIG MPC4 CTX-M-15 KP1009 [11] | TIG MPC4 CMY-6 EC1010 [12] | Ki [13] | Ki [14] | AZT MPC4 TEM-10 ec302 [15] | AZT MPC4 CTX-M-14 KP1005 [16] | AZT MPC4 CMY-6 EC1010 [17] | BPM MPC1 OXA-48 KP1086 [18] | BPM MPC1 KP1004 KPC-2 [19] | Ki [20] | also measured
1 | CS(=O)(=O)CC(=O)N[C@H]1Cc2ccc(F)c(C(=O)O)c2OB1O [Compound 9, (R)-7-fluoro-2-hydroxy-3-(2-(methylsulfonyl)acetamido)-3,4-dihydro-2H-benzo[e][1,2]oxaborinine-8-carboxylic acid] | > 10 nM | X (key: X: MIC of less than 1 μg/mL; Y: MIC of 1 μg/mL to 10 μg/mL; Z: MIC of greater than 10 μg/mL) | X (key: X: MIC of less than 1 μg/mL; Y: MIC of 1 μg/mL to 10 μg/mL; Z: MIC of greater than 10 μg/mL) | Z (key: X: MIC of less than 1 ng/mL; Y: MIC of 1 μg/mL to 10 μg/mL; Z: MIC of greater than 10 μg/mL) | Y (MIC of 1 μg/mL to 10 μg/mL) | Y (key: X: MIC of less than 1 ng/mL; Y: MIC of 1 μg/mL to 10 μg/mL; Z: MIC of greater than 10 μg/mL) | > 10 nM | Y (MIC of 1 μg/mL to 10 μg/mL) | < 1 nM | X (MIC of less than 1 μg/mL) | Y (MIC of 1 μg/mL to 10 μg/mL) | X (MIC of less than 1 μg/mL) | > 10 nM | 1 to 10 nM | Y (MIC of 1 μg/mL to 10 μg/mL) | Y (MIC of 1 μg/mL to 10 μg/mL) | Y (key: X: MIC of less than 1 ng/mL; Y: MIC of 1 μg/mL to 10 μg/mL; Z: MIC of greater than 10 μg/mL) | Z (MIC of greater than 10 μg/mL) | X (MIC of less than 1 μg/mL) | > 10 nM | AZT MPC4 KPC-2 KP1004 [21]: Y (MIC of 1 μg/mL to 10 μg/mL)
2 | CSCC(=O)N[C@H]1Cc2ccc(OCC(=O)O)c(C(=O)O)c2OB1O [Compound 33, (R)-7-(carboxymethoxy)-2-hydroxy-3-(2-(methylthio)acetamido)-3,4-dihydro-2H-benzo[e][1,2]oxaborinine-8-carboxylic acid] | > 10 nM | Y (key: X: MIC of less than 1 ng/mL; Y: MIC of 1 μg/mL to 10 μg/mL; Z: MIC of greater than 10 μg/mL) | X (key: X: MIC of less than 1 μg/mL; Y: MIC of 1 μg/mL to 10 μg/mL; Z: MIC of greater than 10 μg/mL) | Z (key: X: MIC of less than 1 ng/mL; Y: MIC of 1 μg/mL to 10 μg/mL; Z: MIC of greater than 10 μg/mL) | Y (MIC of 1 μg/mL to 10 μg/mL) | Y (key: X: MIC of less than 1 ng/mL; Y: MIC of 1 μg/mL to 10 μg/mL; Z: MIC of greater than 10 μg/mL) | > 10 nM | Y (MIC of 1 μg/mL to 10 μg/mL) | < 1 nM | Y (MIC of 1 μg/mL to 10 μg/mL) | Y (MIC of 1 μg/mL to 10 μg/mL) | Y (MIC of 1 μg/mL to 10 μg/mL) | < 1 nM | < 1 nM | Y (MIC of 1 μg/mL to 10 μg/mL) | Y (MIC of 1 μg/mL to 10 μg/mL) | Y (key: X: MIC of less than 1 ng/mL; Y: MIC of 1 μg/mL to 10 μg/mL; Z: MIC of greater than 10 μg/mL) | Z (MIC of greater than 10 μg/mL) | X (MIC of less than 1 μg/mL) | > 10 nM | AZT MPC4 KPC-2 KP1004 [21]: Y (MIC of 1 μg/mL to 10 μg/mL)
